Test results reported in ChEMBL document CHEMBL4808184, “Discovery and Optimization of DNA Gyrase and Topoisomerase IV Inhibitors with Potent Activity against Fluoroquinolone-Resistant Gram-Positive Bacteria” (J Med Chem, 2021).
In brackets after ≈: the same amount, converted by molar mass.

Legend:
[1] = physchem; conditions: octanol/water, pH 7.4
[2] = test system: Staphylococcus aureus; assay: microbe, parasite or virus in culture; conditions: ATCC 49951
[3] = test system: Staphylococcus aureus; assay: microbe, parasite or virus in culture; conditions: ATCC 49951; remark: listed apart in the source
[4] = physchem

Row | SMILES | logD [1] | MIC [2] [µg/mL] | MIC [3] [µg/mL] | pKa [4]
1 | C[C@H]1COc2c(N3C[C@@H]4CCC[C@H](N)[C@H]4C3)c(F)cc3cc(C(=O)O)c(=O)n1c23 | -1.03 | 0.06 (≈ 0.149 µM) | 0.5 (≈ 1.25 µM) | 5.2
2 | C[C@H]1COc2c(N3CC[C@@H](C4(N)CC4)C3)ccc3cc(C(=O)O)c(=O)n1c23 | – | – | 4 (≈ 10.8 µM) | –
3 | Cc1c(N2CC[C@@H](C3(N)CC3)C2)c(F)cc2cc(Cc3n[nH]c(=O)o3)c(=O)n(C3CC3)c12 | 0.87 | 32 (≈ 72.8 µM) | 32 (≈ 72.8 µM) | 8.8
4 | C[C@H]1COc2c(N3CC[C@@H](C4(N)CC4)C3)c(F)c(F)c3cc(C(=O)O)c(=O)n1c23 | -0.85 | 0.06 (≈ 0.148 µM) | 1 (≈ 2.47 µM) | –
5 | C[C@H]1COc2c(N3C[C@@H]4CCCN[C@@H]4C3)c(F)cc3cc(C(=O)O)c(=O)n1c23 | -1.46 | 1 (≈ 2.58 µM) | 32 (≈ 82.6 µM) | 5
6 | C[C@H]1COc2c(N3CC[C@@H](C4(N)CC4)C3)cc(F)c3cc(C(=O)O)c(=O)n1c23 | -0.4 | 0.25 (≈ 0.645 µM) | 2 (≈ 5.16 µM) | –
7 | Cc1c(N2CCC(C3(N)CC3)C2)c(F)cc2c(-c3cc(O)no3)cc(=O)n(C3CC3)c12 (configuration not stated) | 0.29 | 1 (≈ 2.36 µM) | 2 (≈ 4.71 µM) | 4.7
8 | C[C@H]1COc2c(N3C[C@H]4[C@H](C3)OCC[C@@H]4N)c(F)cc3cc(C(=O)O)c(=O)n1c23 | -1.72 | ≤ 0.03 | 1 (≈ 2.48 µM) | 4.8
9 | C[C@H]1COc2c(N3CC[C@@H](C4(N)CC4)C3)c(F)c(Cl)c3cc(C(=O)O)c(=O)n1c23 | -0.46 | ≤ 0.03 | 0.5 (≈ 1.19 µM) | –
10 | C[C@H]1CCc2c(N3CC[C@@H](C4(N)CC4)C3)c(F)cc3cc(C(=O)O)c(=O)n1c23 | -0.27 | 0.06 (≈ 0.156 µM) | 1 (≈ 2.59 µM) | –
11 | C[C@H]1COc2c(N3CC[C@@H](C4(N)CCC4)C3)c(F)cc3cc(C(=O)O)c(=O)n1c23 | -1.42 | 0.125 (≈ 0.311 µM) | 2 (≈ 4.98 µM) | 4.9
12 | Cc1c(N2CCC(C3(N)CC3)C2)c(F)cc2c(Cc3noc(=O)[nH]3)cc(=O)n(C3CC3)c12 (configuration not stated) | -0.74 | 4 (≈ 9.1 µM) | 32 (≈ 72.8 µM) | 5.1
13 | C[C@H]1COc2c(N3CC[C@H](N)C3)c(F)cc3cc(C(=O)O)c(=O)n1c23 | < -2 | 2 (≈ 5.76 µM) | > 32 | 4.8
14 | C[C@H]1COc2c(N3CCN(C)CC3)c(F)cc3cc(C(=O)O)c(=O)n1c23 | -1.99 | 16 (≈ 44.3 µM) | > 32 | 4.5
15 | Cc1c(N2CC[C@@H](C3(N)CC3)C2)c(F)cc2cc(C#N)c(=O)n(C3CC3)c12 | 1.19 | 0.06 (≈ 0.164 µM) | 0.06 (≈ 0.164 µM) | 8.4
16 | C[C@H]1COc2c(N3CC[C@@H](C4(N)CC4)C3)c(F)c(C#N)c3cc(C(=O)O)c(=O)n1c23 | -1.86 | 0.125 (≈ 0.303 µM) | 1 (≈ 2.42 µM) | –
17 | Cc1c(N2CCC(C3(N)CC3)C2)c(F)cc2c(Cc3noc(=S)[nH]3)cc(=O)n(C3CC3)c12 (configuration not stated) | -0.3 | 8 (≈ 17.6 µM) | 8 (≈ 17.6 µM) | 2.5
18 | Cc1c(N2CCC(C3(N)CC3)C2)c(F)cc2c(-c3noc(=S)[nH]3)cc(=O)n(C3CC3)c12 (configuration not stated) | – | 4 (≈ 9.06 µM) | 4 (≈ 9.06 µM) | 2
19 | C[C@H]1COc2c(N3CC[C@@H](C4(N)CC4)C3)c(Cl)cc3cc(C(=O)O)c(=O)n1c23 | -1.12 | 2 (≈ 4.95 µM) | 32 (≈ 79.2 µM) | –
20 | Cc1c(N2CC[C@@H](C3(N)CC3)C2)c(F)cc2cc(-c3nnco3)c(=O)n(C3CC3)c12 | – | 0.125 (≈ 0.305 µM) | 0.125 (≈ 0.305 µM) | 8.3
21 | COc1cc2cc(C(=O)O)c(=O)n3c2c(c1N1CC[C@@H](C2(N)CC2)C1)OC[C@@H]3C | -1.22 | 32 (≈ 80.1 µM) | > 32 | –
22 | Cc1c(N2CC[C@@H](C3(N)CC3)C2)c(F)cc2cc(-c3n[nH]c(=O)o3)c(=O)n(C3CC3)c12 | – | 0.125 (≈ 0.294 µM) | 0.06 (≈ 0.141 µM) | 7.2

Row | SMILES | logD [1] | MIC [2] [µg/mL] | MIC [3] [µg/mL] | pKa [4]
23 | C[C@H]1COc2c(N3CC[C@@H](C4(N)CC4)C3)cc(Cl)c3cc(C(=O)O)c(=O)n1c23 | – | – | 1 (≈ 2.48 µM) | –
24 | C[C@H]1Cc2c(N3CC[C@@H](C4(N)CC4)C3)c(F)cc3cc(C(=O)O)c(=O)n1c23 | -0.51 | 0.25 (≈ 0.673 µM) | 8 (≈ 21.5 µM) | –
25 | Cc1c(N2CCC(C3(N)CC3)C2)c(F)cc2c(Cc3cc(O)no3)cc(=O)n(C3CC3)c12 (configuration not stated) | -0.9 | 8 (≈ 18.2 µM) | 8 (≈ 18.2 µM) | 3.9
26 | C[C@H]1COc2c(N3CC[C@@H](C4(N)CC4)C3)cc(C#N)c3cc(C(=O)O)c(=O)n1c23 | -0.55 | 0.25 (≈ 0.634 µM) | 2 (≈ 5.07 µM) | –
27 | C[C@H]1COc2c(N3CC(CN)C4(CCC4)C3)c(F)cc3cc(C(=O)O)c(=O)n1c23 (some centres not stated) | -0.66 | 0.125 (≈ 0.311 µM) | 2 (≈ 4.98 µM) | 5.2
28 | C[C@H]1COc2c(N3CC[C@H](O)C3)c(F)cc3cc(C(=O)O)c(=O)n1c23 | -0.46 | 0.5 (≈ 1.44 µM) | > 32 | 5.2
29 | C[C@H]1CCOc2c(N3CC[C@@H](C4(N)CC4)C3)c(F)cc3cc(C(=O)O)c(=O)n1c23 | 0.01 | 0.25 (≈ 0.623 µM) | 8 (≈ 19.9 µM) | –
30 | Cc1c(N2CC[C@@H](C3(N)CC3)C2)c(F)cc2cc(C(N)=O)c(=O)n(C3CC3)c12 | – | 0.25 (≈ 0.65 µM) | 1 (≈ 2.6 µM) | 8.4
31 | Cc1c(N2CCC(C3(N)CC3)C2)c(F)cc2c(-c3n[nH]c(=O)o3)cc(=O)n(C3CC3)c12 (configuration not stated) | – | 0.5 (≈ 1.18 µM) | 1 (≈ 2.35 µM) | 6.4
32 | C[C@@H]1COc2c(N3CC[C@@H](C4(N)CC4)C3)c(F)cc3cc(C(=O)O)c(=O)n1c23 | -0.92 | 16 (≈ 41.3 µM) | > 32 | –
33 | C[C@H]1COc2c(N3CC[C@@H](C4(N)CC4)C3)c(C#N)cc3cc(C(=O)O)c(=O)n1c23 | -1.77 | 0.25 (≈ 0.634 µM) | 4 (≈ 10.1 µM) | –
34 | Cc1c(N2CC[C@@H](C3(N)CC3)C2)c(F)cc2cc(-c3noc(=O)[nH]3)c(=O)n(C3CC3)c12 | -0.32 | 0.125 (≈ 0.294 µM) | 0.125 (≈ 0.294 µM) | 5.4
35 | Cc1c(N2CC[C@@H](C3(N)CC3)C2)c(F)cc2cc(-c3ncon3)c(=O)n(C3CC3)c12 | 1.46 | 0.25 (≈ 0.611 µM) | 0.5 (≈ 1.22 µM) | 8.4
36 | C[C@H]1COc2c(N3CCC(=C(Cl)CN)CC3)c(F)cc3cc(C(=O)O)c(=O)n1c23 | -0.39 | 4 (≈ 9.48 µM) | > 32 | –
37 | C[C@H]1COc2c(N3CC[C@@H](C4(N)CC4)C3)c(F)c(N)c3cc(C(=O)O)c(=O)n1c23 | -0.97 | 0.5 (≈ 1.24 µM) | 8 (≈ 19.9 µM) | –
38 | C[C@H]1COc2c(N3CC4C[C@@H](OC(F)F)C[C@@H](N)[C@H]4C3)c(F)cc3cc(C(=O)O)c(=O)n1c23 (single isomer, unassigned) | -0.4 | 0.06 (≈ 0.128 µM) | 1 (≈ 2.14 µM) | 5.2
39 | C[C@H]1COc2c(N3CC4C[C@H](F)C[C@@H](N)[C@H]4C3)c(F)cc3cc(C(=O)O)c(=O)n1c23 (single isomer, unassigned) | -1.04 | ≤ 0.03 | 0.06 (≈ 0.143 µM) | 5.07
40 | CO[C@@H]1CC2CN(c3c(F)cc4cc(C(=O)O)c(=O)n5c4c3OC[C@@H]5C)C[C@@H]2[C@H](N)C1 (single isomer, unassigned) | -1.5 | ≤ 0.03 | 0.25 (≈ 0.579 µM) | 5.2
41 | C[C@H]1COc2c(N3CC4OCC[C@@H](N)[C@H]4C3)c(F)cc3cc(C(=O)O)c(=O)n1c23 (single isomer, unassigned) | -1.66 | 0.125 (≈ 0.31 µM) | 1 (≈ 2.48 µM) | 5.2
42 | CO[C@@H]1CC[C@@H](N)[C@H]2CN(c3c(F)cc4cc(C(=O)O)c(=O)n5c4c3OC[C@@H]5C)CC12 (single isomer, unassigned) | -1.28 | ≤ 0.03 | 0.25 (≈ 0.579 µM) | 4.9
43 | C[C@H]1COc2c(N3CC4CCC[C@@H](N)[C@H]4C3)c(F)cc3cc(C(=O)O)c(=O)n1c23 (single isomer, unassigned) | -0.68 | ≤ 0.03 | 0.25 (≈ 0.623 µM) | 5.2
